Assays:
[1] = system: Cx43 protein; experiment: Cx43 protein levels / immunostaining at skin wound sites; assay type: in vivo, mice
Protocol: (§1) Male, 8 week old, ICR mice were used in the following experiments. All the mice were kept under specific pathogen-free conditions in an environmentally controlled clean room at University College London and all the experiments were carried out under UK Home Office regulations. Mice were anaesthetized by halothane inhalation. Four full-thickness excisional wounds of 6 mm diameter were made on the shaved back on either side of the dorsal midline with a 6 mm biopsy punch (Kai Industries). To each pair of wounds a single topical application of 50 μl of 1 μM Cx43 as ODN (SEQ. ID No. 2) (Sigma-Genosys) in 30% Pluronic F-127 gel (Sigma-Aldrich), chilled on ice, was made to one wound, and an identical application of 1 μM sense control sODNs was made to the other. […] R. and Becker, D. L. (2003). Targeting connexin 43 expression accelerates the rate of wound repair. Curr Biol 13, 1697-703). Each wound region was digitally photographed at the indicated time intervals, and the areas of the wounds were calculated. All wound areas were expressed as percentages of the initial wound areas. In some series of experiments, wounds and their surrounding area, including the scab and epithelial margins, were harvested with an 8 mm biopsy punch (Kai Industries) at the indicated time intervals after mice were killed with an overdose of chloroform. A minimum of eight mice were used for each time point examined.
Immunostaining for connexin 43, blood vessels or a smooth muscle actin was carried out on cryostat sections of wounds. Sections were fixed in acetone at 4° C. for 5 minutes prior to blocking for 45 minutes. Incubation in primary antibody was for one hour at the following dilutions: rabbit anti-Cx43 (Sigma) 1:3,000; isoLectin B_FITC 1:2000; von Willebrand Factor (rabbit Dako) 1:400; anti-α smooth muscle actin (Sigma) 1:400 at room temperature. Sections were washed for 3×5 minutes in PBS before a one hour incubation in anti-rabbit-FITC secondary antibody (Dako) 1:200 at room temperature. Washing 3×5 minutes in PBS, in some cases with 1 μM bis-benzimide (Sigma) in the first wash as a nuclear counter stain, and mounted in Citifluor (Citifluor, London, UK). Sections were imaged by confocal microscopy with all parameters kept constant to allow direct comparison of digital images.

[2] = system: F4/80-positive macrophages; experiment: Macrophage recruitment into wound site (F4/80 immunohistochemistry); assay type: in vivo, mice
Protocol: as §1, with “In some series of experiments, wounds and their surrounding area, including the scab and epithelial margins, were harvested with an 8 mm biopsy punch (Kai Industries) at the indicated time intervals after mice were killed with an overdose of chloroform. A minimum of eight mice were used for each time point examined.” left out
A treatment-blinded observer counted MPO-positive neutrophils and F4/80-positive macrophages in the wound bed (defined as the area surrounded by unwounded skin, fascia, regenerated epidermis, and eschar) in 3 random high-power fields of 0.332 mm^2. […]

[3] = system: TGF-β1 mRNA; experiment: Real-Time PCR of TGF-β1 at wound sites; assay type: in vivo, mice
Protocol: as §1, with “In some series of experiments, wounds and their surrounding area, including the scab and epithelial margins, were harvested with an 8 mm biopsy punch (Kai Industries) at the indicated time intervals after mice were killed with an overdose of chloroform. A minimum of eight mice were used for each time point examined.” left out
(§2) Gene specific primers and probe were obtained as TaqMan® Gene Expression Assays (Applied Biosystems) for Cx43, Ccl2, Co1α1, TNFα and TGFβ1. […] Each sample was analyzed in duplicate. […]

[4] = system: hydroxyproline; experiment: Hydroxyproline analysis of collagen content of wound area; parameters: species or system mice; settings: mouse, in vivo
Protocol: as §1, with “Targeting connexin 43 expression accelerates the rate of wound repair. Curr Biol 13, 1697-703).” left out, “In some series of experiments, wounds and their surrounding area, including the scab and epithelial margins, were harvested with an 8 mm biopsy punch (Kai Industries) at the indicated time intervals after mice were killed with an overdose of chloroform. A minimum of eight mice were used for each time point examined.” left out
The collagen content of the wound area was assessed by determining the amount of hydroxyproline (HP), a major component of collagen. […] Concentrations of protein were measured using a BCA™ Protein Assay Kit (PIERCE Biotechnology Inc.), and the amounts of HP were determined with Sircol™ Soluble Collagen Assay Kit (Biocolor Ltd.). The data were expressed as amounts of HP/total protein (ng/μg) for each sample.

[5] = system: collagen type 1α1; experiment: Real-Time PCR of Col1α1 at wound sites; parameters: species or system mice; settings: mouse, in vivo
Protocol: as §1, with “In some series of experiments, wounds and their surrounding area, including the scab and epithelial margins, were harvested with an 8 mm biopsy punch (Kai Industries) at the indicated time intervals after mice were killed with an overdose of chloroform. A minimum of eight mice were used for each time point examined.” left out
as §2

[6] = system: IGFBP-2; experiment: Growth factor/cytokine antibody array of chimera: IGFBP-2; assay type: cell-based, human; settings: after two weeks in culture
Protocol: Cell denuded pig stroma chimeras were cultured for two weeks and then assessed using a growth factor/cytokine antibody array (measures protein levels of 120 different growth factors/cytokines.
After two weeks in culture the chimeras were cut in half: one half for histological analysis, and the other for growth factor and cytokine array analysis. For growth factor and cytokine analysis the central stromal region (with fully recovered human cell epithelium) and partially repopulated stroma (human keratocytes) was removed and homogenised separately from the human limbal rim which contains stem cell populations. The homogenates were run on a growth factor/cytokine array (FIG. 15) and analysis of growth factor levels performed using densitometry analysis of the array membranes.

[7] = system: skin wounds; settings: Qiu 2003; Coutinho 2005; cited from earlier work

GTAATTGCGGCAGGAGGAATTGTTTCTGTC (antisense GTAATTGCGGCAGGAGGAATTGTTTCTGTC; in Pluronic F-127 gel, further chemistry not given here) [Cx43 asODN]
Cx43 protein immunostaining in epidermis and dermis of wound edge ([1]; day 1, compared to controls): very low levels
Cx43 protein immunostaining of wound ([1]; day 2): some Cx43 staining had returned to the dermis of the Cx43 asODN-treated wound but the level was still very low in the epidermis
Cx43 staining, treated versus untreated ([1]; day 7): no obvious difference
duration of Cx43 protein down-regulation in wound-site epidermis and dermis ([1]; delivered from Pluronic F-127 slow-release gel): at least 24 hours
protein levels of Cx43 in the epidermis and dermis ([1]; within two hours of treatment, delivery from the time of injury): markedly reduced
reduction of number of macrophages versus control sODN-treated wounds ([2]; day 2): 33%
reduction of number of macrophages versus control sODN-treated wounds ([2]; day 7): 32%
expression of TGF-β1 mRNA versus control sODN-treated wounds ([3]; day 2 after the injury, P<0.05): significantly increased
expression of TGF-β1 mRNA, control versus treated wounds ([3]; days 1 and 7): no difference
hydroxyproline in treated wounds [4]: increased
collagen type 1α1 in treated wounds [5]: increased
level of IGFBP-2 in limbal rim and stroma compared with untreated controls [6]: higher levels
healing of skin wound and burn injury sites versus control sODN [7]: significantly accelerated healing

— patent US9457044B2, “Methods and compositions for wound healing” (CoDa Therapeutics, Inc., priority 2006, dated 2016)
